US9944687B2, “Compounds and their effects on feeding behaviour” (Imperial Innovations Limited, priority 2011, dated 2018)
Where no end group is shown, it is not given here.

Test: pair feeding in rats (food intake and body weight)
Type: in vivo, Male Wistar rats
Details: for body weight gain versus corresponding pair-fed (PF) group: 10 days; for body weight gain versus corresponding pair-fed (PF) group / overall body weight change by the end of the 10 day test period versus saline control: FIG. 12b; for total food intake over 10 days / overall body weight change by the end of the 10 day test period versus saline control: daily injection, exendin-4 30, 285 100, 373 50, 398 200 nmol/kg; for total food intake over 10 days: FIG. 12a
Text: Pair feeding is a technique used to separate the weight loss observed in a cohort of animals which has been caused by appetite suppression from the weight loss caused by the induction of metabolic changes. Pair-feeding studies require daily measurement of body weight (BW) and food intake (FI). In pair-feeding studies, rats were divided into three weight-matched groups. Group 1 (the “saline” group) were given a daily injection of saline and allowed access to ad libitum food. Group 2 (identified by the code of the compound administered) were given daily injection of a selected compound of the invention and allowed access to ad libitum food.

Substance	body weight compared to the saline control (100 nmol/kg daily)	body weight reduction versus pair-fed (G237 PF) group (100 nmol/kg daily)	body weight gain versus corresponding pair-fed (PF) group	total food intake over 10 days	overall body weight change by the end of the 10 day test period versus saline control
HSQGTFTSDYSKYLDSQAVHLFIQWLLNGGPSSGAPPPS [compound 237]	reduction in body weight compared to the saline control	not solely mediated by a reduction in food intake	–	–	–
His Ser Gln Gly Thr Phe Thr Ser Asp Tyr Ser His Tyr Leu Asp Ser Lys Ala Val His Leu Phe Ile Gln Trp Leu Leu Asn Gly-NH2 (HSQGTFTSDYSHYLDSKAVHLFIQWLLNG-NH2) [compound 285]	–	–	lower weight gains than the corresponding paired feeding groups	less overall food intake	lower body weight gain than the saline control group
His Ser Gln Gly Thr Phe Thr Ser Asp Tyr Ser Lys Tyr Leu Asp Ser Gln Ala Val Arg Leu Phe Ile Glu Trp Leu Leu Asn Gly-NH2 (HSQGTFTSDYSKYLDSQAVRLFIEWLLNG-NH2) [compound 398]	–	–	lower weight gains than the corresponding paired feeding groups	less overall food intake	lower body weight gain than the saline control group
His Ser Gln Gly Thr Phe Thr Ser Asp Tyr Ser Lys Tyr Leu Glu Ser Gln Ala Val His Leu Phe Ile Glu Trp Leu Lys Asn Gly-NH2 (HSQGTFTSDYSKYLESQAVHLFIEWLKNG-NH2) [compound 373]	–	–	lower weight gains than the corresponding paired feeding groups	less overall food intake	lower body weight gain than the saline control group
